In patent US20240148819A1, “COMPOUNDS FOR USE IN THE TREATMENT OF SINUSITIS, PNEUMONIA OR OTITIS” (PHARMA HOLDINGS AS, priority 2021, published 2024):
In brackets after ≈: the same amount, converted by molar mass. Several values for one entry are separate records, joined by “and”; a condition that tells them apart may be missing. Equal values may be shown once. Read-outs that look alike come from different tables or passages of the source.

Columns and labels:
[1] = system: Aspergillus niger; conditions: Aspergillus niger - G. R. Micro collection
Procedure: (§1) Bacterial and fungal isolates used in this study were from various sources worldwide stored at GR Micro Ltd. and maintained, with minimal sub-culture, deep frozen at −70° C. as a dense suspension in a high protein matrix of undiluted horse serum.
(§2) Minimum inhibitory concentration (MIC) of LTX-109 was determined using the following microbroth dilution methods for antimicrobial susceptibility testing published by the Clinical and Laboratory Standards Institute (CLSI, formerly NCCLS): • M7-A6 Vol. 23 No. 2 Jan. 2003 Methods for Dilution Antimicrobial Susceptibility Tests for Bacteria that Grow Aerobically; Approved Standard-Sixth Edition. National Committee for Clinical Laboratory Standards. • M100-S15 Vol. 25 No 1. January 2005 Performance Standards for Antimicrobial Susceptibility Testing; Fifteenth Informational Supplement. Clinical and Laboratory Standards Institute • M11-A6 Vol. 24 No. 2 Methods for Antimicrobial Susceptibility Testing of Anaerobic Bacteria; Approved Standard-Sixth Edition. National Committee for Clinical Laboratory Standards. • M27-A2 Vol. 22 No. 15 Reference Method for Broth Dilution Antifungal Susceptibility Testing of Yeasts; Approved Standard-Second Edition. National Committee for Clinical Laboratory Standards. • M38-A Vol. 22 No. 16 Reference Method for Broth Dilution Antifungal Susceptibility Testing of Filamentous Fungi; Approved Standard. National Committee for Clinical Laboratory Standards.
(§3) MIC estimations were performed using wet plates, containing the LTX-109, prepared at GR Micro Ltd.
(§4) Yeast and filamentous fungal MIC were performed in MOPS buffered RPMI 1640 medium (MOPS buffer obtained from Sigma Aldrich Ltd., RPMI 1640 obtained from Invitrogen Ltd, Paisley, Scotland). The yeast inocula were in the range 7.5×10^2-4×10^3 CFU/mL and the filamentous fungi approximately 8×10^3-1×10^5 CFU/mL.
(§5) Following normal practice all the plates containing Mueller-Hinton broth were prepared in advance, frozen at −70° C. on the day of preparation and defrosted on the day of use. Fungal, Haemophilus and anaerobic MIC determinations were all performed in plates prepared on the same day.

[2] = system: Candida tropicalis; conditions: Candida tropicalis - ATCC750 - reference strain
Procedure: as §1, §2, §3, §4, §5

[3] = system: Candida krusei; conditions: Candida krusei - ATCC6258 - reference strain
Procedure: as §1, §2, §3, §4, §5

[4] = system: Candida parapsilosis; conditions: Candida parapsilosis - ATCC90018 - reference strain
Procedure: as §1, §2, §3, §4, §5

[5] = system: Candida albicans
Procedure: as §1, §2, §3, §4, §5

[6] = system: MDCK-II cells; conditions: 1% LTX-109 (w/v) in PBS, 1 h, after filtration, no virus; dilution up to which cytotoxicity on MDCK-II cells was seen
Procedure: (§6) A parallel test where the same procedure was carried out in the absence of virus was included to determine any residual cytotoxic effect of the formulation on the assay cells.

[7] = system: Pseudomonas aeruginosa; conditions: Pseudomonas aeruginosa - ATCC 27853 - antibiotic-susceptible type strain; three replicates (frozen and fresh MHB plates)
Procedure: as §1
as §2, with “Standard-Second Edition. […] National Committee” for “Standard-Second Edition. National Committee”, “Laboratory Standards.” for “Laboratory Standards. • M38-A Vol. 22 No. 16 Reference Method for Broth Dilution Antifungal Susceptibility Testing of Filamentous Fungi; Approved Standard. National Committee for Clinical Laboratory Standards.”
MIC estimations were performed using wet plates, containing the LTX-109, prepared at GR Micro Ltd. […]

[8] = system: Influenza A virus (IAV; A/WSN/33); assay type: cell-based
[9] = system: HeLa cells; conditions: 1% LTX-109 (w/v) or 0.25% SDS, after filtration, no virus, dilution showing cytotoxicity
Procedure: as §6

## CC(C)(C)c1cc(C(C)(C)C)c2[nH]c(C(C)(C)C)c(CC(NC(=O)C(N)CCCNC(=N)N)C(=O)NC(CCCNC(=N)N)C(=O)NCCc3ccccc3)c2c1 (centres unmarked) [LTX-109]
[1]
  MIC: 8 µg/mL (≈ 10.2 µM)
[2]
  MIC: 4 µg/mL (≈ 5.08 µM)
[3]
  MIC: 4 µg/mL (≈ 5.08 µM)
[4]
  MIC: 16 µg/mL (≈ 20.3 µM)
[5]; Candida albicans - ATCC24433 - reference strain
  MIC: 8 µg/mL (≈ 10.2 µM)
[5]; Candida albicans - ATCC90028 - reference strain
  MIC: 8 µg/mL (≈ 10.2 µM)
[6]
  With Filtration (cytotoxicity): Up to 10^−1
[7]
  MIC: 8 µg/mL (≈ 10.2 µM)
[8]
  Log: 1.20
  Percentage: 99.9% and 99.969%
[9]
  Cytotoxicity: Neat
